{"source": "patent US11045554B1", "about": "(National Technology & Engineering Solutions of Sandia, LLC, priority 2018, dated 2021)", "key": {"HeLa cells": {"tested_on": "HeLa cells", "format": "cell-based"}, "TC-83 [1]": {"tested_on": "TC-83", "design": "species or system C3H/HeN mice", "settings": "mouse, in vivo"}, "[2]": {"tested_on": "VEEV (ZPC738 virulent strain)", "assay": "microbe, parasite or virus in culture", "format": "cell-based, Venezuelan equine encephalitis virus (VEEV)"}, "TC-83 [3]": {"tested_on": "TC-83", "settings": "mouse, in vivo, ip; cited from earlier work"}, "[4]": {"settings": "pH 7.4; cited from earlier work"}, "[5]": {"tested_on": "VEEV vaccine strain (TC-83)", "settings": "cited from earlier work"}, "TC-83 virus": {"tested_on": "TC-83 virus", "assay": "microbe, parasite or virus in culture", "format": "cell-based, Venezuelan equine encephalitis virus (VEEV)"}, "[6]": {"settings": "Venezuelan equine encephalitis virus, HeLa, 24 h"}}}
{"smiles": "CN(C)CCCN1c2ccccc2Sc2ccc(Cl)cc21", "note": "[CPZ, chlorpromazine]", "values": [{"measurement": "LC-MSN internalization in presence of inhibitor (in words)", "setting": "HeLa cells", "result": "clearly inhibited"}, {"measurement": "reduction of the percentage of cells that internalized LC-MSNs", "setting": "HeLa cells", "result": 84, "unit": "%"}]}
{"smiles": "CCCCCCCCCCCCCC(=O)O[C@@H]1[C@@H](C)[C@@]2(O)[C@@H](C=C(CO)C[C@]3(O)C(=O)C(C)=C[C@@H]23)[C@@H]2C(C)(C)[C@]12OC(C)=O", "note": "[PMA, phorbol 12-myristate 13-acetate]", "values": [{"measurement": "LC-MSN internalization in presence of inhibitor (in words)", "setting": "HeLa cells", "result": "not"}]}
{"smiles": "O=C(N/N=C/c1ccc(O)c(O)c1)c1cc2ccccc2cc1O", "note": "[DYN, dynasore]", "values": [{"measurement": "LC-MSN internalization in presence of inhibitor (in words)", "setting": "HeLa cells", "result": "clearly inhibited"}, {"measurement": "reduction of the percentage of cells that internalized LC-MSNs", "setting": "HeLa cells", "result": 71, "unit": "%"}]}
{"smiles": "CN1CCN(C)C(=Nc2ccc([N+](=O)[O-])cc2C(=O)Nc2ccccc2)C1", "note": "[ML336, 2-[(1,4-dimethylpiperazin-2-ylidene)amino]-5-nitro-N-phenylbenzamide]", "values": [{"measurement": "brain viral load / titer vs PBS (in words)", "setting": "TC-83 [1]", "result": "not significantly different from PBS treated animals"}, {"measurement": "VEEV viral inhibition (in words)", "setting": "[2]; HeLa cells, 24 hours", "result": "dose-dependent manner"}, {"measurement": "IC50", "setting": "[2]; [6]", "result": 15, "unit": "nM"}, {"measurement": "survival rate", "setting": "TC-83 [3]", "result": 71, "unit": "%"}, {"measurement": "solubility", "setting": "[4]", "result": 0.04, "unit": "mg/mL"}, {"measurement": "reduction of viral titer", "setting": "[5]; at nanomolar concentrations", "result": "630,000 fold"}, {"measurement": "EC90", "setting": "[5]", "result": 170, "unit": "nM"}, {"measurement": "TC-83 viral inhibition (in words)", "setting": "TC-83 virus; HeLa cells, increasing concentration or LC-MSN mass", "result": "dose-dependent manner"}, {"measurement": "IC50", "setting": "TC-83 virus; [6]", "result": 163, "unit": "nM"}]}
{"smiles": "Oc1ccc2ccccc2c1SSc1c(O)ccc2ccccc12", "note": "[IPA-3]", "values": [{"measurement": "LC-MSN internalization in presence of inhibitor (in words)", "setting": "HeLa cells", "result": "not"}]}
{"smiles": "CO/C1=C\\C(C)=C\\[C@@H](C)[C@@H](O)[C@@H](C)C/C(C)=C/C=C/[C@H](OC)[C@@H]([C@@H](C)[C@@H](O)[C@H](C)[C@@]2(O)C[C@@H](O)[C@H](C)[C@@H](C(C)C)O2)OC1=O", "note": "[BAF, bafilomycin A]", "values": [{"measurement": "LC-MSN internalization / uptake in presence of inhibitor (in words)", "setting": "HeLa cells", "result": "almost completely inhibited"}, {"measurement": "LC-MSN internalization in presence of inhibitor (in words)", "setting": "HeLa cells", "result": "clearly inhibited"}]}
